Data taken from ChEMBL document CHEMBL4321836, “Discovery of BAY-298 and BAY-899: Tetrahydro-1,6-naphthyridine-Based, Potent, and Selective Antagonists of the Luteinizing Hormone Receptor Which Reduce Sex Hormone Levels in Vivo” (J Med Chem, 2019).
Activity calls are given as the source filed them. The calls are words filed in the database; no cut-off is given here.

Key:
[1] = Apparent permeability across apical to basolateral side in human Caco2 cells at 2 uM after 2 hrs by LC-MS/MS analysis; assay type: ADME, cell-based; details: Caco-2
[2] = biological target: T1, Follicle-stimulating hormone receptor (Homo sapiens, UniProt P23945); assay: Antagonist activity at human follicle stimulating hormone receptor assessed as reduction in agonist-induced cAMP production preincubated for 20 mins followed by agonist solution addition and measured after 120 mins by cell based TR-FRET assay; assay type: functional
T1 sequence (P23945 whole entry): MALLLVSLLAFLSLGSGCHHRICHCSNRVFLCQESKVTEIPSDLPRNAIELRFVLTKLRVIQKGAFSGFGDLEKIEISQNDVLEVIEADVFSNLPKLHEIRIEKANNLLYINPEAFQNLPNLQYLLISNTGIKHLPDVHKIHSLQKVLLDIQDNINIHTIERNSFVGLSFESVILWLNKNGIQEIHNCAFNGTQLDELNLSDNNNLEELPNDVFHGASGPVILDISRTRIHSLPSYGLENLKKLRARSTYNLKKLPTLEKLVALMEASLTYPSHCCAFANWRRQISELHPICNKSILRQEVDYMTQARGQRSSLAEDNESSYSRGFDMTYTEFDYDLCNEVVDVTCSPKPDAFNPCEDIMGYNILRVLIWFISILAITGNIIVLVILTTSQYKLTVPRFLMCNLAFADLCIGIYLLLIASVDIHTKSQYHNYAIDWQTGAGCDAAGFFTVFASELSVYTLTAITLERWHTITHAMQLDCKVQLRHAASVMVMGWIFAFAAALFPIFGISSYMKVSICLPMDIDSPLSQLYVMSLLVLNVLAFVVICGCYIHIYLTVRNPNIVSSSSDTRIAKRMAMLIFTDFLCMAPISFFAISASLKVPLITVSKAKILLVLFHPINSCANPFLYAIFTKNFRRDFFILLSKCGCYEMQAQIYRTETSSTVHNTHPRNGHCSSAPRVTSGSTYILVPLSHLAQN

[3] = biological target: Thyrotropin receptor (Homo sapiens, UniProt P16473); assay: Antagonist activity at human thyroid stimulating hormone receptor expressed in rat HTC133 cells assessed as reduction in agonist-induced cAMP production preincubated for 20 mins followed by agonist solution addition and measured after 60 mins by cell based TR-FRET assay; assay type: functional
Thyrotropin receptor, sequence (P16473 whole entry): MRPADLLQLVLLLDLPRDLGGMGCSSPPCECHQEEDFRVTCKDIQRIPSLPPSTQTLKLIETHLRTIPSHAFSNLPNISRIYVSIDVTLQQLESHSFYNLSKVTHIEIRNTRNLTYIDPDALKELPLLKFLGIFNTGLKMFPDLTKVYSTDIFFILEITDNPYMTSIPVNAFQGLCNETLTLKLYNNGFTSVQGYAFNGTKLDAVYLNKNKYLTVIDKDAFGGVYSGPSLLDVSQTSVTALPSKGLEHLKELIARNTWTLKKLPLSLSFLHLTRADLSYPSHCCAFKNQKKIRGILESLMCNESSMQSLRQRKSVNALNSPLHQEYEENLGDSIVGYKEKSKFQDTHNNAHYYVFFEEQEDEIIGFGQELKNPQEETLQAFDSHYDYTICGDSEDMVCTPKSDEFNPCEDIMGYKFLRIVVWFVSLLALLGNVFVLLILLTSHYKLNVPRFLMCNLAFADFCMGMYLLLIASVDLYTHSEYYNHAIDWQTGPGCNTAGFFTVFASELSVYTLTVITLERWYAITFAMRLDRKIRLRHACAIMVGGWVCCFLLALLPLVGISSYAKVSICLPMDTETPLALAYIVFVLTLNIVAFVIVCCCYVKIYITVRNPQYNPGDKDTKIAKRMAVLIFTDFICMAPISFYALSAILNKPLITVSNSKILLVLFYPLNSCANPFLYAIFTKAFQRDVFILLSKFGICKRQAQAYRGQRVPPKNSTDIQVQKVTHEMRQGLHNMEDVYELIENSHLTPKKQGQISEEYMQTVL

[4] = biological target: Voltage-gated inwardly rectifying potassium channel KCNH2 (Homo sapiens, UniProt Q12809); assay: Inhibition of human ERG expressed in HEK293 cells at holding potential -80 mV by whole-cell voltage-clamp method; assay type: cell-based
Voltage-gated inwardly rectifying potassium channel KCNH2, sequence (Q12809 whole entry): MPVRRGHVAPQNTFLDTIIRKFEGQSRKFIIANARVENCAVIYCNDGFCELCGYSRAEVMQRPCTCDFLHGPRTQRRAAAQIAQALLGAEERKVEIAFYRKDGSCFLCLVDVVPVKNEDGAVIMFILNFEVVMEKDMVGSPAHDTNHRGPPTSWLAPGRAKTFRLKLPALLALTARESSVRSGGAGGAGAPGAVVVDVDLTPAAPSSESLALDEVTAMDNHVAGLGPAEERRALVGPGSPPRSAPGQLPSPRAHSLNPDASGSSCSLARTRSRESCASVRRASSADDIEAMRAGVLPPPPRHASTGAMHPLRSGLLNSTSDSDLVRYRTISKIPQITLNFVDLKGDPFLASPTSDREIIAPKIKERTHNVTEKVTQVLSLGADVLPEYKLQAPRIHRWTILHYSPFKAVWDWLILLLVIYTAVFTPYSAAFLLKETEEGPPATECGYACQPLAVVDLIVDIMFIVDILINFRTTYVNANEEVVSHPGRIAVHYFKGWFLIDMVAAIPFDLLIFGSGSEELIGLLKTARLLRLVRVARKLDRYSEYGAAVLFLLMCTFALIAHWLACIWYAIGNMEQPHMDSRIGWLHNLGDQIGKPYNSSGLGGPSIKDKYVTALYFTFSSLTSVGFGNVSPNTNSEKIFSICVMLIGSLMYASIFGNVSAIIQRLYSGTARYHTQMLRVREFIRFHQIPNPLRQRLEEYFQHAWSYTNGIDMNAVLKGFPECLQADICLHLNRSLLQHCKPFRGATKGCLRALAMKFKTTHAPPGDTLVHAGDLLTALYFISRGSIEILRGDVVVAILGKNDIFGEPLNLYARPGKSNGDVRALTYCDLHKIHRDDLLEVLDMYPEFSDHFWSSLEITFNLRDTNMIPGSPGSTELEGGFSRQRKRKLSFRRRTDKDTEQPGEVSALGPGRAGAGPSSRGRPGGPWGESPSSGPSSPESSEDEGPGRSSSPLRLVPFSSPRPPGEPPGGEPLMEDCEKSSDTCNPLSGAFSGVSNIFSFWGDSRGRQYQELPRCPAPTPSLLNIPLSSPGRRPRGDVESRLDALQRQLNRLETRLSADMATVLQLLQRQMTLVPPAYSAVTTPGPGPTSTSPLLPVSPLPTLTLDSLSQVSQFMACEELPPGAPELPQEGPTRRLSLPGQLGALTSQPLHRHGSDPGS

[5] = Clearance in rat liver microsomes at 1 uM measured after 2 to 60 mins in presence of glucose-6-phosphate by LC-MS/MS analysis; assay type: ADME, Microsome
[6] = Maximum oral bioavailability in Han Wistar rat hepatocytes at 1 uM measured after 2 to 90 mins by LC-MS/MS analysis; assay type: ADME, Hepatocyte; details: read-out: Fmax
[7] = species: Homo sapiens; assay: Selectivity ratio of IC50 for human thyroid stimulating hormone receptor expressed in rat HTC133 cells to human luteinizing hormone receptor; assay type: cell-based
[8] = Dose normalized AUC in Wistar rat at 2 mg/kg, po after 8 to 72 hrs by LC-MS/MS analysis; assay type: ADME, organism-based; details: in vivo
[9] = Dose normalized Cmax in Wistar rat at 2 mg/kg, po after 8 to 72 hrs by LC-MS/MS analysis; assay type: ADME, organism-based; details: in vivo
[10] = Oral bioavailability in Wistar rat at 2 mg/kg after 8 to 72 hrs by LC-MS/MS analysis; assay type: ADME, organism-based; details: in vivo
[11] = biological target: Beta-1 adrenergic receptor (Homo sapiens) (UniProt P08588); assay: Antagonist activity at human beta1 adrenergic receptor expressed in HEK293 cells at 10 uM after 30 mins HTRF assay relative to control; assay type: cell-based; parameters: scale not given: the % may be the effect or the level left
Beta-1 adrenergic receptor (Homo sapiens), sequence (P08588 whole entry, looked up): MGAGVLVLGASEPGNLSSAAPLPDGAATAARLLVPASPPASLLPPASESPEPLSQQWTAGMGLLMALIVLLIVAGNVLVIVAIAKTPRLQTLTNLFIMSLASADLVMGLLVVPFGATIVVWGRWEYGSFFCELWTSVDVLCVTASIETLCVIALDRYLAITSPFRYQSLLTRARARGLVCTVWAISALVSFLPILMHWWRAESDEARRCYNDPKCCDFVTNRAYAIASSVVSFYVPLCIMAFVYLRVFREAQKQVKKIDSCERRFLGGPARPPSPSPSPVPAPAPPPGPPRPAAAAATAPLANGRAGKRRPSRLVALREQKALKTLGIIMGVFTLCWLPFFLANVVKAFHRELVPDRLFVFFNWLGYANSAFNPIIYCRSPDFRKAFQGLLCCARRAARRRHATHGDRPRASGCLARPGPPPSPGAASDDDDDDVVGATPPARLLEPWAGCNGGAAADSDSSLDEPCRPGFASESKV

[12] = biological target: Beta-2 adrenergic receptor (Homo sapiens) (UniProt P07550); assay: Antagonist activity at human beta2 adrenergic receptor expressed in CHO-K1 cells at 10 uM after 30 mins HTRF assay relative to control; assay type: cell-based; parameters: scale not given: the % may be the effect or the level left
Beta-2 adrenergic receptor (Homo sapiens), sequence (P07550 whole entry, looked up): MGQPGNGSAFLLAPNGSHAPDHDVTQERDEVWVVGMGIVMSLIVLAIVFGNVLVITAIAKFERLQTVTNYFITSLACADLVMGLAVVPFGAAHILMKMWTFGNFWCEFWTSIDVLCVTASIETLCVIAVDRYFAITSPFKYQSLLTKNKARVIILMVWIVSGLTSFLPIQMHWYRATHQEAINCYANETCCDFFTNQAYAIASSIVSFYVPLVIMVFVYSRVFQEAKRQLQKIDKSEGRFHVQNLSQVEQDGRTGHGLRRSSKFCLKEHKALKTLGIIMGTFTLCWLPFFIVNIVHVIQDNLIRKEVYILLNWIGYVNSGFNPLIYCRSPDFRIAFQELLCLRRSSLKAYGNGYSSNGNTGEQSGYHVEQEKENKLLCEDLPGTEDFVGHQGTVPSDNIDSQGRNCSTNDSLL

[13] = biological target: Cannabinoid receptor 1 (Homo sapiens) (UniProt P21554); assay: Agonist activity at human CB1 receptor expressed in CHO-K1 cells at 10 uM after 20 mins HTRF assay relative to control; assay type: cell-based
Cannabinoid receptor 1 (Homo sapiens), sequence (P21554 whole entry): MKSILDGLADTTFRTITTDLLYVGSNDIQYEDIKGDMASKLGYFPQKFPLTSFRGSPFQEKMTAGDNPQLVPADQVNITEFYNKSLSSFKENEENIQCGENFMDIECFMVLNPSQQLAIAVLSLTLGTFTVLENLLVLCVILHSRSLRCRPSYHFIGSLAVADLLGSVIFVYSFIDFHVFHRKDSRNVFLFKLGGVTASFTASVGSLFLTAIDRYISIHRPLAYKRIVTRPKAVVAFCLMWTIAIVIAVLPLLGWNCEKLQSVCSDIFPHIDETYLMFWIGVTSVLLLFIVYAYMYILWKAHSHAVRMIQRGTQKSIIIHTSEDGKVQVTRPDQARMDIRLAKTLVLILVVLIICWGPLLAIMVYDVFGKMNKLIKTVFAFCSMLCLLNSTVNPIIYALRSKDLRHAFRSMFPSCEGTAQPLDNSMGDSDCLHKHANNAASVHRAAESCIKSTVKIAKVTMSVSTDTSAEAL

[14] = biological target: Cannabinoid receptor 1 (Homo sapiens) (UniProt P21554); assay: Antagonist activity at human CB1 receptor expressed in CHO-K1 cells at 10 uM after 20 mins HTRF assay relative to control; assay type: cell-based; parameters: scale not given: the % may be the effect or the level left
[15] = biological target: D(1A) dopamine receptor (Homo sapiens) (UniProt P21728); assay: Agonist activity at human D1 receptor expressed in CHO-K1 cells at 10 uM after 30 mins HTRF assay relative to control; assay type: cell-based
D(1A) dopamine receptor (Homo sapiens), sequence (P21728 whole entry): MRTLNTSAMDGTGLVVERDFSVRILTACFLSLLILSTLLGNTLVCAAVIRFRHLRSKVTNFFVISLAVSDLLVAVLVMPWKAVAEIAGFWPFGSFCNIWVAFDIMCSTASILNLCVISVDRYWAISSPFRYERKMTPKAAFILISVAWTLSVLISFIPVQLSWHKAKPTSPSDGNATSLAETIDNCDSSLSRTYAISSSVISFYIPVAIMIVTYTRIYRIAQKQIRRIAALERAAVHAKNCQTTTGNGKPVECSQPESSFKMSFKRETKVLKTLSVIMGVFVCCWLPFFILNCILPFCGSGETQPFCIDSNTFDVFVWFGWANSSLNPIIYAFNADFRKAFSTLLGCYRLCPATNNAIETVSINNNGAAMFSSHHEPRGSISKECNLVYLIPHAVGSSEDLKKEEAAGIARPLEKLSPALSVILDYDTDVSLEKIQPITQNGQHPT

[16] = biological target: Histamine H1 receptor (Homo sapiens) (UniProt P35367); assay: Antagonist activity at human histamine H1 receptor expressed in HEK293 cells at 10 uM by Fluorimetric method relative to control; assay type: cell-based; parameters: scale not given: the % may be the effect or the level left
[17] = biological target: Histamine H2 receptor (Homo sapiens) (UniProt P25021); assay: Agonist activity at human histamine H2 receptor expressed in CHO-K1 cells at 10 uM after 30 mins by HTRF assay relative to control; assay type: cell-based
Histamine H2 receptor (Homo sapiens), sequence (P25021 whole entry): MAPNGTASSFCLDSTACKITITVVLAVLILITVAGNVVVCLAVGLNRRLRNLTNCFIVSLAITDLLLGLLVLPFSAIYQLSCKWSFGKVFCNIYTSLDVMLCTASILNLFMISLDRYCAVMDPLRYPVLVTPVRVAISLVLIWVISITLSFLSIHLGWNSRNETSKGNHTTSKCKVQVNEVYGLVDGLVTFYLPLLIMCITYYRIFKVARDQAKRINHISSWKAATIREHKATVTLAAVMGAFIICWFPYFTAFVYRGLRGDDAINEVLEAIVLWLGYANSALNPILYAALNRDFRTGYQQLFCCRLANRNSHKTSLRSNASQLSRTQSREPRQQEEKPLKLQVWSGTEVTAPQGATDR

[18] = biological target: Histamine H3 receptor (Homo sapiens) (UniProt Q9Y5N1); assay: Antagonist activity at human histamine H3 receptor expressed in CHO-K1 cells at 10 uM after 10 mins by HTRF assay relative to control; assay type: cell-based; parameters: scale not given: the % may be the effect or the level left
[19] = biological target: T2, Muscarinic acetylcholine receptor M1 (Homo sapiens) (UniProt P11229); assay: Agonist activity at human muscarinic M1 receptor expressed in CHO-K1 cells at 10 uM by fluorimetric method relative to control; assay type: cell-based
T2 sequence (whole entry): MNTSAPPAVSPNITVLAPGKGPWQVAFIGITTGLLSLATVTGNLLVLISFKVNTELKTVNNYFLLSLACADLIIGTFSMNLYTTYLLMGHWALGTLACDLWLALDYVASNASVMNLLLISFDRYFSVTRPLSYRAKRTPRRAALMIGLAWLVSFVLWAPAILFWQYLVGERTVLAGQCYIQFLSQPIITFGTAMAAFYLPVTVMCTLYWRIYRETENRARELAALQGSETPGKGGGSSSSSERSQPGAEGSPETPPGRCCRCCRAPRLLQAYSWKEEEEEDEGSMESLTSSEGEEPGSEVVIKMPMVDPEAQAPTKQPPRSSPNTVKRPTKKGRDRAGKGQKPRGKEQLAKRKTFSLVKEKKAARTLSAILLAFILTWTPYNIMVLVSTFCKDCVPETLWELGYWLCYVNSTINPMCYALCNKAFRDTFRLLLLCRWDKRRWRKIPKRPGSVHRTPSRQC

[20] = biological target: T2, Muscarinic acetylcholine receptor M1 (Homo sapiens); assay: Antagonist activity at human muscarinic M1 receptor expressed in CHO-K1 cells at 10 uM by fluorimetric method relative to control; assay type: cell-based; parameters: scale not given: the % may be the effect or the level left
[21] = biological target: Kappa-type opioid receptor (Homo sapiens) (UniProt P41145); assay: Agonist activity at human kappa opioid receptor at 10 uM by Spectrophotometric method relative to control
Kappa-type opioid receptor (Homo sapiens), sequence (P41145 whole entry): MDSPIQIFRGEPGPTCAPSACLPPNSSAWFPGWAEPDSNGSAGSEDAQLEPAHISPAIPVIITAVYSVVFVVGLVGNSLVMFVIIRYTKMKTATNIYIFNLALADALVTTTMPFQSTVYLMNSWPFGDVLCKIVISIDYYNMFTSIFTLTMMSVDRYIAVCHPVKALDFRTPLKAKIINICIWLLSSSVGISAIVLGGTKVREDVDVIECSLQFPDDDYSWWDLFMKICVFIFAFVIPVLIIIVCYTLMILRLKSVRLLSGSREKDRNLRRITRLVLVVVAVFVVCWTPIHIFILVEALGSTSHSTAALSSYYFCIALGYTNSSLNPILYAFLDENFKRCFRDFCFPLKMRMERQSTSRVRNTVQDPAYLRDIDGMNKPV

[22] = biological target: 5-hydroxytryptamine receptor 2B (Homo sapiens) (UniProt P41595); assay: Antagonist activity at human 5-HT2B receptor expressed in CHO-K1 cells at 10 uM after 30 mins by HTRF assay relative to control; assay type: cell-based; parameters: scale not given: the % may be the effect or the level left
5-hydroxytryptamine receptor 2B (Homo sapiens), sequence (P41595 whole entry): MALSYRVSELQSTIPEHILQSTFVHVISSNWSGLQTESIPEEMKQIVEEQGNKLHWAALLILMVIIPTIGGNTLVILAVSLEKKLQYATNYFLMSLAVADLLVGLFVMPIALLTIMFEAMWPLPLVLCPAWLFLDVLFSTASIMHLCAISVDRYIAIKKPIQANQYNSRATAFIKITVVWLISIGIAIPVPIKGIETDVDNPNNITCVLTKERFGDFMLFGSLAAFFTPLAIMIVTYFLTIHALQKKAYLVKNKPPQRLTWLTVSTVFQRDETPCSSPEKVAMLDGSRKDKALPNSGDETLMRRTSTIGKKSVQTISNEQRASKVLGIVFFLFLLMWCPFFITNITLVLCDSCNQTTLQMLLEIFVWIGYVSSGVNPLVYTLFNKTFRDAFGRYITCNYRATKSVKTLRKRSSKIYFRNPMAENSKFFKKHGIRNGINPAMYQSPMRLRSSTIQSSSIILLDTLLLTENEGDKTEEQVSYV

[23] = tested on: Rattus norvegicus; assay: Induction of long-term effect on estrus cycle in 4 day cycle of normally cycling female rat assessed as changes in vaginal smears at 12.5 mg/kg, po administered once daily for 8 days; assay type: functional, organism-based
[24] = Toxicity in female rat assessed as effect on animal activity; details: in vivo

| SMILES | Papp A→B at 2 h, 2 µM [1] [×10⁻⁶ cm/s] | IC50 [2] [µM] | IC50 [3] [µM] | IC50 [4] [µM] | CLH [5] [mL/min/kg] | Fh at 1 µM [6] [%] | Ratio IC50 [7] | AUC/dose [8] [kg·h/L] | Cmax/dose [9] [kg/L] | bioavailability [10] [%] | Activity [11] [%] | Activity [12] [%] | Activity [13] [%] | Activity [14] [%] | Activity [15] [%] | Activity [16] [%] | Activity [17] [%] | Activity [18] [%] | Activity [19] [%] | Activity [20] [%] | other results |
| --- | --- | --- | --- | --- | --- | --- | --- | --- | --- | --- | --- | --- | --- | --- | --- | --- | --- | --- | --- | --- | --- |
| O=C(Nc1ccc(Oc2ccc(F)cc2)cc1)N1CCc2ncccc2[C@@H]1c1ccc(Cl)cc1 | 1.5 | > 16 | 2.3 | 3 | 3.3 | 74 | 24 | 7.8 | 0.24 | 83 | < 70 | < 70 | < 70 | < 70 | < 70 | < 70 | < 70 | < 70 | < 70 | < 70 | Activity [21]: < 70%; Activity [22]: < 70%; Activity [23]: Active; Activity [24]: Non-Toxic |
| O=C(Nc1cnc(Oc2ccc(F)cc2)nc1)N1CCc2ncccc2[C@@H]1c1ccc(F)cc1 [BAY-899] | 8.9 | > 16 | 24 | 10.6 | 3.3 | 68 | > 100 | 2.7 | 0.066 | 108 | < 70 | < 70 | < 70 | < 70 | < 70 | < 70 | < 70 | < 70 | < 70 | < 70 | Activity [21]: < 70%; Activity [22]: < 70%; Activity [23]: Active; Activity [24]: Non-Toxic |
